Legend:
Sphaerotheca fuliginea = assay: Controlling effect on Sphaerotheca fuliginea by foliage application (pot experiment); assay type: in vivo; conditions: foliage spray on cucumber (cv. TSUKUBASHIROIBO) first leaves, infected area after 10 days in greenhouse at 20° C.
Procedure: The following Test Examples illustrate the effects of the fungicide of the present invention. (I. Controlling effects on various plant diseases by foliage application (pot experiment)) A test compound was dissolved in a small amount of N,N-dimethylformamide, and the solution was diluted to a given concentration with distilled water containing a spreader. Thus, a liquid sample to be tested was prepared. The liquid sample was sprayed to test plants, and 24 hours thereafter, pathogens were inoculated by the method described below. […] Seeds of cucumber ([…]) were sown in plastic cups (each 9 cm in diameter), followed by cultivation for 2 to 3 weeks. The liquid test sample in the form of a solution or suspension was sprayed on the surface of their first leaves. The pathogen was inoculated to the leaves by spraying a conidia suspension of Sphaerotheca fuliginea which had been cultured on the cucumber leaves. After the inoculation, the plants were kept in a greenhouse at 20° C. for 10 days. Then, the infected area on the leaf was observed, and the percent control was calculated.

[1] = test system: Erysiphe graminis f. sp. tritici; assay: Controlling effect on Erysiphe graminis f. sp. tritici by foliage application (pot experiment); assay type: in vivo; conditions: foliage spray on wheat (cv. NORIN No. 61) seedlings, infected area after 10 days in greenhouse at 20° C.
Procedure: The following Test Examples illustrate the effects of the fungicide of the present invention. (I. Controlling effects on various plant diseases by foliage application (pot experiment)) A test compound was dissolved in a small amount of N,N-dimethylformamide, and the solution was diluted to a given concentration with distilled water containing a spreader. Thus, a liquid sample to be tested was prepared. The liquid sample was sprayed to test plants, and 24 hours thereafter, pathogens were inoculated by the method described below. […] The seeds of wheat (cv.: NORIN No. 61) were sown in plastic cups (each 9 cm in diameter), followed by cultivation for 2 to 3 weeks. The test compound in the form of a solution or suspension was sprayed to the seedlings, and conidia of Erysiphe graminis f. sp. tritici cultured on wheat leaves were dropped on the test plants to inoculate the plants with the pathogen. After the inoculation, the plants were kept in a greenhouse at 20° C. for 10 days. The infected area on the leaf was observed, and the percent control was calculated.

SMILES	Controlling effect on Sphaerotheca fuliginea by foliage application at 500 ppm (percent control) (Sphaerotheca fuliginea)	Controlling effect on ErYsiphe graminis f. sp. tritici by foliage application at 500 ppm (percent control) [1] [percent control]
CON=C(C1=NCCS1)c1ccccc1Oc1ccccc1 (mixture of isomers) [compound 1515]	70	90
CON=C(C1=NCCN1C)c1ccccc1COc1ccccc1C(F)(F)F [compound 1121]	100	90
CON=C(c1ccccc1COc1ccc(F)cc1)c1nccn1C (single isomer, unassigned) [104B]	–	70
CON=C(c1noc(C)n1)c1ccccc1COc1cc(C)ccc1C (single isomer, unassigned) [936B]	97	90
CON=C(c1nnn(C)n1)c1ccccc1COc1ccccc1C [compound 2012]	100	70
CON=C(C1=NCCO1)c1ccccc1Oc1ncc(C(F)(F)F)cc1Cl [compound 1829]	–	90
CON=C(C1=NCCN1C)c1ccccc1COc1ccccc1 [compound 1101]	–	90
CON=C(c1ccccc1COc1cc(C)ccc1C)n1cccn1 [compound 294]	97	–
CON=C(C1=NCCN1C)c1ccccc1COc1ccc(C(F)(F)F)cc1 [compound 1123]	90	90
CON=C(c1ccccc1COc1ccc(-c2ccccc2)cc1)c1nccn1C (single isomer, unassigned) [144B]	70	–
CON=C(c1ncno1)c1ccccc1COc1cc(C)ccc1C [compound 1590]	70	–
CON=C(c1cc(C)no1)c1ccccc1COc1ccccc1Cl (single isomer, unassigned) [605B]	100	90
CON=C(c1ccccc1COc1cc(C)ccc1C)c1ccnn1C (single isomer, unassigned) [1554B]	–	70
CON=C(c1ccccc1COc1ccc(Cl)cc1)n1cnc(C)c1 [Compound No. 227]	97	70
CON=C(c1ncon1)c1ccccc1COc1ccccc1Cl [compound 805]	97	–
CON=C(c1ccccc1COc1cccc(C(F)(F)F)c1)c1nccn1C (single isomer, unassigned) [122B]	100	–
C=CCON=C(c1ccon1)c1ccccc1COc1ccccc1C (mixture of isomers) [compound 1667]	–	70
CON=C(C1=NCCO1)c1ccccc1COc1ccc(C)cc1 [compound 1312]	70	–
CON=C(c1ncon1)c1ccccc1COc1cc(C)ccc1C (single isomer, unassigned) [836B]	100	97
CON=C(c1ccccc1COc1cc(Cl)ccc1Cl)c1nccn1C (single isomer, unassigned) [131B]	100	–

SMILES	Controlling effect on Sphaerotheca fuliginea by foliage application at 500 ppm (percent control) (Sphaerotheca fuliginea)	Controlling effect on ErYsiphe graminis f. sp. tritici by foliage application at 500 ppm (percent control) [1] [percent control]
CON=C(C1=NCCS1)c1ccccc1COc1cc(C)ccc1C [compound 1514]	97	70
CON=C(c1cnco1)c1ccccc1Oc1ccccc1 [compound 1735]	100	97
CON=C(C1=NCCO1)c1ccccc1COc1cccc(C)c1 [compound 1311]	70	70
CON=C(C1=NCCN1C)c1ccccc1COc1ccc(C)cc1 [compound 1114]	70	70
CCON=C(c1ccccc1COc1ccccc1)n1cnc(C)c1 [compound 235]	–	90
CON=C(c1ncc[nH]1)c1ccccc1COc1cc(C)ccc1C [compound 1428]	100	70
CON=C(c1ccccc1COc1cccc(C)c1)c1nccn1C (single isomer, unassigned) [113B]	90	–
CON=C(C1=NCCN1C)c1ccccc1COc1cccc(C(F)(F)F)c1 (single isomer, unassigned) [1122A]	–	70
CON=C(C1=NCCO1)c1ccccc1Oc1ccccc1 (single isomer, unassigned) [1341A]	70	90
CON=C(c1cc(C)ns1)c1ccccc1COc1cc(C)ccc1C [compound 1654]	–	70
CON=C(C1=NCCO1)c1ccccc1COc1ccccc1Cl [compound 1305]	70	–
CON=C(C1=NCCO1)c1ccccc1Oc1ccc(C(F)(F)F)cn1 [compound 1826]	70	–
CON=C(C1=NCCO1)c1ccccc1Oc1ccccc1 (single isomer, unassigned) [1341B]	70	90
CCON=C(c1ccon1)c1ccccc1COc1ccccc1C (mixture of isomers) [compound 1665]	–	70
CON=C(c1ccccc1COc1ccccc1Cl)n1cncn1 [compound 265]	–	70
CON=C(c1noc(C)n1)c1cc(Cl)ccc1Oc1ccc(C(F)(F)F)cn1 [compound 2120]	70	–
CON=C(c1ccccc1COc1ccccc1C)c1nccn1C (single isomer, unassigned) [112B]	90	–
CON=C(C1=NCCN1)c1ccccc1COc1ccccc1Cl [compound 1455]	–	70
CON=C(c1ccco1)c1ccccc1COc1cc(C)ccc1C (single isomer, unassigned) [1634B]	70	–
CON=C(c1ccccc1COc1ccccc1)c1nccn1C (single isomer, unassigned) [101A]	70	–

— patent US6362212B1, “Oxime derivative and bactericide containing the same as active ingredient” (Shionogi & Company, Ltd., priority 1994, dated 2002)
